From paper PMC5929447 (Oncotarget, 2018)
Values joined by “and” are separate entries in the source; they are usually repeats but may differ in a detail not shown here. Identical values can stand only once.

How the values were obtained:
H146 cell line = test: CellTiter-Glo cell viability, H146; type: cell-based; settings: Homo sapiens, NCI-H146; 72 h of treatment
Protocol: (§1) Cells were seeded into 96-well plates and treated at 8 points with 1:2 serial dilution of compounds. Cell viability was assessed and assayed for viability using CellTiter-Glo reagent (Promega) following the manufacturer's instructions. Plates were read using Tecan luminescence plate reader. Results were normalized to the viability of cells without compounds (control wells). The IC50 values were calculated using nonlinear regression algorithms in XCell software.

BCL-XL/BAX complex = BCL-XL/BAX complex (Homo sapiens, UniProt Q07817); test: Co-immunoprecipitation in BCL-XL-overexpressing HeLa cells; settings: 2 h
BCL-XL/BAX complex, sequence (Q07817 whole entry, one chain of several): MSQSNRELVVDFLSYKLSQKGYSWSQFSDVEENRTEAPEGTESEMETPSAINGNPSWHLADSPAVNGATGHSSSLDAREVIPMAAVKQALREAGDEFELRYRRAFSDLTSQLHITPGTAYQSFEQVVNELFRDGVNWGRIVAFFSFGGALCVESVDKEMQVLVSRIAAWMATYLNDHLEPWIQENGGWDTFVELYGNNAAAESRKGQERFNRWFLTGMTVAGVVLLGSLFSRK
Protocol: Effecten reagent (Qiagen), with 3xFlag-tagged BCL-XL
24 h later, transfected Hela and RS4;11
were put under neomycin selection (800 µg/ml, Invitrogen) were then subjected to immunoprecipitation with anti-

BCL-2/BAX complex = BCL-2/BAX complex (Homo sapiens, UniProt P10415); test: Co-immunoprecipitation in BCL-2-overexpressing HeLa cells; type: cell-based; settings: 2 h
BCL-2/BAX complex, sequence (P10415 whole entry, one chain of several): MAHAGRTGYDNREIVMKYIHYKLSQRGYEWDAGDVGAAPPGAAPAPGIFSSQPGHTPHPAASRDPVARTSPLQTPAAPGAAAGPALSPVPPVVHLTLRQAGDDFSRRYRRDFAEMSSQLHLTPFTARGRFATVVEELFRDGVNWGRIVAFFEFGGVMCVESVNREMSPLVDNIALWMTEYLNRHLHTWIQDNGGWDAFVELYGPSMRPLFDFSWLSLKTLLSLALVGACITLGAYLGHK

RS4;11 cell line = test: CellTiter-Glo cell viability, RS4;11; type: cell-based; settings: Homo sapiens, 72 h of treatment
Protocol: as §1

[1] = test system: caspase-3 activity in RS4;11 tumor xenografts; test: Caspase-3 activity in RS4;11 tumor xenografts; type: in vivo; settings: 100 mg/kg single oral gavage, 16 h post dosing, SCID mice
Protocol: Body weights were recorded and tumors were measured with digital calipers twice to three times a week. Tumor volume was calculated using the formula: length × width^2/2. Percent changes in body weights was calculated as (BWcurrent - BWinitial)/(BWinitial) × 100. Data is presented as percent body weight change from the day of treatment initiation. When tumors reached approximately 200 mm^3 for efficacy studies or 300 mm^3 for pharmacodynamic studies, mice were randomized. […] Mice were treated via oral gavage at 10 ml/kg with the doses and schedules described in the figure. For pharmacodynamic studies, blood and tumors were removed 16 h post dosing and immediately snap-frozen. Total proteins were extracted from the tumors and caspase-3 activity was assessed in triplicate using CaspACE® Assay System (Promega). Platelet cell counts were determined 16 hours post dosing using Coulter AcT diff (Beckman).

BCL-2 = BCL-2 (Homo sapiens, UniProt P10415); test: Isothermal titration calorimetry (ITC), BCL-2; settings: binding to BCL-2
BCL-2, sequence (P10415 whole entry): as the sequence (P10415 whole entry, one chain of several) above
Protocol: The protein was dialyzed prior to use in 2 L of 25 mM HEPES, 150 mM NaCl, 5% glycerol (v/v), 0.5% MTG (v/v) at pH 7.4 for 3 hours at room temperature. The protein was dialyzed using a 3.5 K MWCO Slide-A-Lyzer™ cassette. The protein solution was recovered, spin-filtered through a […] frit. The filtered protein was quantified by UV absorbance at 280 nm using an extinction coefficient of 36440 M^-1cm^-1. 500 ml of dialysis buffer was retained (remainder used to rinse out SCHOT bottle) and degassed for a minimum of 30 mins under vacuum with constant stirring. […] The solutions were carefully matched to ensure same solvent and buffer conditions were present in both syringe and cell (this is to minimize heat of dilution effects). The final solution was the dialysis buffer plus 1% DMSO and 0.05% P20. The experiment was performed over 13 injections with stirring at 1000 rpm, gain setting low and at 25° C. Pure water was used in the reference cell. The first injection was 0.5 μl with a duration of 1 second with a gap of 150 seconds until the further 12 injections of 3.05 μl with a duration 6.1 seconds and a 240 second interval between injections. Data was analyzed using the vendor supplied software, PEAQ-ITC Analysis Software. The data model used was the single site model. The data shown is the average of 2 or 3 independent experiments.

platelets = test: Platelet counts in RS4;11-bearing mice; type: in vivo; settings: 100 mg/kg single oral dose, 16 h post dosing
Protocol: (§2) When tumors reached approximately 200 mm^3 for efficacy studies or 300 mm^3 for pharmacodynamic studies, mice were randomized. […] Mice were treated via oral gavage at 10 ml/kg with the doses and schedules described in the figure.
For pharmacodynamic studies, blood and tumors were removed 16 h post dosing and immediately snap-frozen. Total proteins were extracted from the tumors and caspase-3 activity was assessed in triplicate using CaspACE® Assay System (Promega). Platelet cell counts were determined 16 hours post dosing using Coulter AcT diff (Beckman).

MCL-1 = MCL-1 (Homo sapiens, UniProt Q07820); test: Fluorescence polarization (FP) with Fluorescein-PUMA, MCL-1; type: binding
MCL-1, sequence (Q07820 whole entry): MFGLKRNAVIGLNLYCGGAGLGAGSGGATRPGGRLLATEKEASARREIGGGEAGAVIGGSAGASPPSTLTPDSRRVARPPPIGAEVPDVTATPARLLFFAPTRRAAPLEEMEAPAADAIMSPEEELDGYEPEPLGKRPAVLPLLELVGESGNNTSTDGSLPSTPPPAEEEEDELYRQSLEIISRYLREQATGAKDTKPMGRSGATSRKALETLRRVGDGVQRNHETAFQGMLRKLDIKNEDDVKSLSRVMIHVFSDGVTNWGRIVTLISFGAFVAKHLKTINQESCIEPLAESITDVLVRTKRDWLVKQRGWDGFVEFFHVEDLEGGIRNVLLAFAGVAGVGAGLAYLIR

BFL-1 = molecular target: T1, BFL-1 (Homo sapiens, UniProt Q16548); test: Fluorescence polarization (FP) with Fluorescein-PUMA, BFL-1; settings: at 3E-05 M
T1 sequence (Q16548 1-175): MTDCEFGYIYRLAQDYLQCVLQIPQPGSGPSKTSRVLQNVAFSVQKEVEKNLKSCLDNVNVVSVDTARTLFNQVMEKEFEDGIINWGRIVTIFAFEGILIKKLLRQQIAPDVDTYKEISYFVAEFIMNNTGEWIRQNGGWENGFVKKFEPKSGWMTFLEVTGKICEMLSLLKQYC
Protocol: Final concentrations of MCL-1, BFL-1, BCL-2 and BCL-XL proteins were 10, 10, 10 and 20 nM respectively. The assay plates were incubated for 2 hours at room temperature and the FP was measured on a Synergy 2 reader (Ex. 528 nm, Em. 640 nm, Cut-off 510 nm). The binding of increasing doses of compound was expressed as a percentage reduction in mP compared to the window established between ‘DMSO only’ and ‘total inhibition’ control (30 μM PUMA). […] The KI was subsequently calculated as previously described [42].

Toledo xenograft = Toledo xenograft efficacy; type: in vivo, mice; settings: 200 mg/kg oral five times a week for 3 weeks, day 21
Protocol: Experiments were performed in SCID/beige female mice from Charles River Laboratories, Massachusetts, USA. Animals, approximately 7-8 weeks of age at the start of the treatment were allowed to acclimate in animal facility with access to food and water ad libitum for 3 days prior to manipulation. Animals were handled in accordance with IACUC regulations and guidelines for experiments performed in the USA and with European and French regulation for the protection of vertebrate animals for experiments performed in France. Animal well-being and behavior, including grooming and ambulation were monitored at least once a day. General health of mice was monitored and mortality recorded daily. Any moribund animals were sacrificed.
RS4;11 Acute Lymphoblastic Leukemia cell lines was obtained from ATCC. Toledo (Diffuse Large B-Cell Lymphoma) human cell lines were obtained internally through Bioresources and the Novartis-Cancer Cell Line Encyclopedia. Cells were free of Mycoplasma and murine viral contamination in the IMPACT VIII PCR assay panel (IDEXX RADIL, IDEXX laboratories INC, Westbrook, ME, USA). Cells used for subcutaneous implantation were cultured in RPMI plus 10% FBS at 37° C in a humidified atmosphere containing 5% carbon dioxide). […] Cells were resuspended in a 1:1 mixture of cold DPBS (Dulbecco's Phosphate-Buffered Saline) and Matrigel™ (Becton-Dickinson #354234) at a concentration of 3 × 10^7 cells/ml for Toledo cells, and of 1 × 10^7 cells/ml for RS4;11 cells.
For each experiment, female SCID/beige mice were implanted subcutaneously (right axillary region) with 3 × 10^6 Toledo or RS4;11 (1 × 10^6 cells for efficacy studies and 1 × 10^7 cells for pharmacodynamics studies) suspended in 1:1 mixture of cold DPBS and Matrigel™ in a total volume of 100 μl. Body weights were recorded and tumors were measured with digital calipers twice to three times a week. Tumor volume was calculated using the formula: length × width^2/2. Percent changes in body weights was calculated as (BWcurrent - BWinitial)/(BWinitial) × 100. Data is presented as percent body weight change from the day of treatment initiation.
as §2
For efficacy studies, percent treatment/control (T/C) values were calculated using the following formula: %T/C = 100 × ΔT/ΔC if ΔT > 0. Regression = 100 × ΔT/Tinitial if ΔT < 0 where: T = mean tumor burden of the drug-treated group on the final day of the study; ΔT = mean tumor burden of the drug-treated group on the final day of the study – mean tumor burden of the drug-treated group on initial day of dosing; Tinitial = mean tumor burden of the drug-treated group on initial day of dosing; C = mean tumor burden of the control group on the final day of the study; and ΔC = mean tumor burden of the control group on the final day of the study – mean tumor burden of the control group on initial day of dosing. If the tumor volume was less than 14 mm^3 for more than 3 consecutive measurements, animals were considered in complete regression (CR).

[2] = test system: isolated platelets from healthy volunteers; test: Apoptosis (annexin V) in isolated platelets; type: cell-based; settings: Homo sapiens, Platelet; 4 healthy donors, 3 h; read-out: EC50 apoptosis (PS+) in isolated platelets
Protocol: Peripheral blood samples from CLL patients were obtained with informed patient consent and local ethical committee approval (UHL-09723). […] Interphase fluorescence in situ hybridization (FISH) was performed for detection of 17p13 deletion. Mantle cell lymphoma (MCL) primary cells were obtained after informed consent from MCL patients treated at the department of clinical hematology from the University Hospital of Nantes, France. Peripheral MCL cells from blood or pleural effusion, were purified after Ficoll-Hypaque separation with immuno-magnetic anti-CD19 beads (Miltenyi, Paris, France). Primary cells were cultured in RPMI-1640 supplemented with 10% FCS and 2 mM glutamine. Human platelets were isolated from citrate blood donated by healthy volunteers. Washed platelets were cultured in Hepes-buffered saline (HBS, 10 mM Hepes, 150 mM NaCl, 5 mM KCl, 1 mM MgSO4, pH 7.4).
EC50 values were calculated using GraphPadPrism (non-linear fit, sigmoidal dose response, variable slope). […] Cell death was assessed in the CD19+ primary MCL cells by annexinV-FITC staining combined with an analysis of altered cellular morphology (lower FCS). Fluorescence was analyzed on FACSCalibur.

[3] = test system: BCL-2-dependent FL5.12 cells; test: Apoptosis (annexin V/PI) in FL5.12 cells expressing BCL-2 upon IL-3 withdrawal; type: cell-based, murine; settings: 24 h upon IL-3 withdrawal
[4] = test system: BCL-XL-dependent FL5.12 cells; test: Apoptosis (annexin V/PI) in FL5.12 cells expressing BCL-XL upon IL-3 withdrawal; settings: 24 h upon IL-3 withdrawal

IC50 (H146 cell line) [nM] | IC50 (RS4;11 cell line) [nM] | N (sites), stoichiometry (BCL-2) [sites] | ∆H (enthalpy delta) (BCL-2) | platelet counts in vivo (platelets) | FP_MCL-1, % of inhibition at the maximal tested concentration (MCL-1; at 10E-06 M) [%@10E-06] | FP_BFL-1, % of inhibition at the maximal tested concentration (BFL-1) [%@3E-05] | FP_MCL-1, % of inhibition at the maximal tested concentration (MCL-1; at 30E-06 M) | Structure (SMILES) | effect on BCL-XL/BAX complex in BCL-XL-overexpressing HeLa cells (BCL-XL/BAX complex) | effect on BCL-2/BAX complex in BCL-2-overexpressing HeLa cells (BCL-2/BAX complex) | caspase-3 activity in tumor, times higher than in vehicle-treated animals [1] | % T/C (Toledo xenograft) [% T/C] | Mean TV change (Toledo xenograft; mean ± s.e.m.) [mm3] | EC50 [2] [nM] | apoptosis induction (PS+ cells) in BCL-2-dependent FL5.12 cells [3] | apoptosis induction (PS+ cells) in BCL-XL-dependent FL5.12 cells [4]
49.7 | 41.5 | 0.8 | –13.1 kcal/mol | strong decrease of platelet counts | 9.4 |  |  | CC1(C)CCC(c2ccc(Cl)cc2)=C(CN2CCN(c3ccc(C(=O)NS(=O)(=O)c4ccc(N[C@H](CCN5CCOCC5)CSc5ccccc5)c(S(=O)(=O)C(F)(F)F)c4)cc3)CC2)C1 [ABT-263, reference compound] | disrupt both BCL-2/BAX and BCL-XL/BAX complexes | disrupt both BCL-2/BAX and BCL-XL/BAX complexes | about 20 times |  |  |  |  | 
 |  | 1.1 | –12.1 kcal/mol |  |  | 6.4 | 14.9% and 11.8% | CC1(C)CCC(CN2CCN(c3ccc(C(=O)NS(=O)(=O)c4ccc(NCC5CCOCC5)c([N+](=O)[O-])c4)c(Oc4cnc5[nH]ccc5c4)c3)CC2)=C(c2ccc(Cl)cc2)C1 [ABT-199, reference compound] |  |  |  | 6 | 104.44 ± 70.31 |  |  | 
 |  |  |  |  |  |  |  | CN(C)CC[C@H](CSc1ccccc1)Nc1ccc(S(=O)(=O)NC(=O)c2ccc(N3CCN(Cc4ccccc4-c4ccc(Cl)cc4)CC3)cc2)cc1[N+](=O)[O-] [ABT-737, reference compound] |  |  |  |  |  | 30 | efficiently induced apoptosis | efficiently induced apoptosis
